Results published in patent US8192962B2, “Processes for detecting toxic substances” (Daikin Industries, Ltd., priority 2001, dated 2012).

Tested on: Detoxification protein genes
Experiment: DNA chip mRNA expression in yeast, detoxification protein genes (Table 8)
Assay type: cell-based, Saccharomyces cerevisiae S288C
Method: Yeast (Saccharomyces cerevisiae S288C (α SUC2mal mel gap2 CUP1)) were incubated at 25° C. on YPD medium (yeast extract 1%, polypepton 2%, glucose 2%). One of toxic chemical substances was added to the cells at logarithmic growth phase, and the cells were further incubated for two hours. Cells were cultured without any chemical substance in the same condition, and were used as control. Concentrations of the chemical substances were defined to inhibit the growth of the yeast but not lead to death.
After completion of the incubation, the culture was centrifuged to collect the cells. To the cells, sodium acetate buffer (50 mM sodium acetate, 10 mM EDTA, 1% SDS) was added, and the mixture was shaken at 65° C. for five minutes, followed by returning to room temperature, and obtaining the supernatant, of which the procedures were repeated two times. To the supernatant, ½ amount of a solution of phenol/chloroform was added, and the mixture was centrifuged to give a supernatant, which was added with an equal amount of chloroform, and the mixture was centrifuged to give a supernatant. To the supernatant, an equal amount of isopropanol containing 0.3 M sodium acetate was added, and the mixture was allowed to stand at room temperature for 30 minutes, after which the mixture was centrifuged to give a sediment of the whole RNAs. Seventy % ethanol was added to the sediment, and the mixture was again centrifuged to give a sediment, which was then dried and dissolved in water. mRNA was isolated from the whole RNAs as followings. In view of the fact that a poly A chain is attached to the 3′ terminus of mRNA, a polynucleotide having a poly T structure which was immobilized on the surface of latex beads was used to trap the mRNA, and then the mRNA was washed and eluted with spine column (Oligotex-dT30<Super>mRNA Purification Kit, Takara). Reverse transcription of the mRNA was conducted with a reverse transcriptase (Super Script II Reverse Transcriptase; catalogue No. 18064-014, GibcoBRL) using fluorescence-labeled nucleotides to give cDNAs that were introduced with Cy3-dUTP or Cy5-dUTP during the reverse transcription.
The labeled cDNAs were dissolved in TE buffer (10mM Tris-HCl/1 mM EDTA, pH8.0), and the solution was dropped on the DNA chip containing the whole genes of yeast (DNA Chip Research Inc. Japan) so that the cDNAs were hybridized on the DNA chip at 65° C. for over 12 hours. The fluoresces intensity of the DNA chip was read with a scanner, and the ratio relative to the fluorescence intensity resulting from the absence of chemical substance was estimated as the following, which is shown in Tables 1 to 9: […]

Compound: Oc1cc(Cl)c(Cl)cc1Cl [(6), 2,4,5-trichlorophenol]
- The level of expressed mRNA in the presence of chemical substance/The level of expressed mRNA in the absence of chemical substance (yeast gene YBL064C): 5.2
- The level of expressed mRNA in the presence of chemical substance/The level of expressed mRNA in the absence of chemical substance (yeast gene YBR008C): 1.0
- The level of expressed mRNA in the presence of chemical substance/The level of expressed mRNA in the absence of chemical substance (yeast gene YBR145W): 11.5
- The level of expressed mRNA in the presence of chemical substance/The level of expressed mRNA in the absence of chemical substance (yeast gene YBR244W): 1.0
- The level of expressed mRNA in the presence of chemical substance/The level of expressed mRNA in the absence of chemical substance (yeast gene YBR293W): 0.9
- The level of expressed mRNA in the presence of chemical substance/The level of expressed mRNA in the absence of chemical substance (yeast gene YCL035C): 5.1
- The level of expressed mRNA in the presence of chemical substance/The level of expressed mRNA in the absence of chemical substance (yeast gene YCR083W): 2.4
- The level of expressed mRNA in the presence of chemical substance/The level of expressed mRNA in the absence of chemical substance (yeast gene YDL100C): 2.1
- The level of expressed mRNA in the presence of chemical substance/The level of expressed mRNA in the absence of chemical substance (yeast gene YDL168W): 1.4
- The level of expressed mRNA in the presence of chemical substance/The level of expressed mRNA in the absence of chemical substance (yeast gene YDR256C): 0.5
- The level of expressed mRNA in the presence of chemical substance/The level of expressed mRNA in the absence of chemical substance (yeast gene YDR453C): 1.7
- The level of expressed mRNA in the presence of chemical substance/The level of expressed mRNA in the absence of chemical substance (yeast gene YDR513W): 2.1
- The level of expressed mRNA in the presence of chemical substance/The level of expressed mRNA in the absence of chemical substance (yeast gene YDR538W): 1.0
- The level of expressed mRNA in the presence of chemical substance/The level of expressed mRNA in the absence of chemical substance (yeast gene YEL027W): 1.1
- The level of expressed mRNA in the presence of chemical substance/The level of expressed mRNA in the absence of chemical substance (yeast gene YEL065W): 2.3
- The level of expressed mRNA in the presence of chemical substance/The level of expressed mRNA in the absence of chemical substance (yeast gene YER185W): 1.2
- The level of expressed mRNA in the presence of chemical substance/The level of expressed mRNA in the absence of chemical substance (yeast gene YFL050C): 0.9
- The level of expressed mRNA in the presence of chemical substance/The level of expressed mRNA in the absence of chemical substance (yeast gene YGL013C): 2.3
- The level of expressed mRNA in the presence of chemical substance/The level of expressed mRNA in the absence of chemical substance (yeast gene YGL254W): 0.7
- The level of expressed mRNA in the presence of chemical substance/The level of expressed mRNA in the absence of chemical substance (yeast gene YGR088W): 1.3
- The level of expressed mRNA in the presence of chemical substance/The level of expressed mRNA in the absence of chemical substance (yeast gene YGR138C): 0.8
- The level of expressed mRNA in the presence of chemical substance/The level of expressed mRNA in the absence of chemical substance (yeast gene YGR197C): 0.5
- The level of expressed mRNA in the presence of chemical substance/The level of expressed mRNA in the absence of chemical substance (yeast gene YGR209C): 1.9
- The level of expressed mRNA in the presence of chemical substance/The level of expressed mRNA in the absence of chemical substance (yeast gene YGR224W): 0.8
- The level of expressed mRNA in the presence of chemical substance/The level of expressed mRNA in the absence of chemical substance (yeast gene YHL040C): 7.3
- The level of expressed mRNA in the presence of chemical substance/The level of expressed mRNA in the absence of chemical substance (yeast gene YHL047C): 8.4
- The level of expressed mRNA in the presence of chemical substance/The level of expressed mRNA in the absence of chemical substance (yeast gene YHR008C): 1.0
- The level of expressed mRNA in the presence of chemical substance/The level of expressed mRNA in the absence of chemical substance (yeast gene YHR048W): 0.8
- The level of expressed mRNA in the presence of chemical substance/The level of expressed mRNA in the absence of chemical substance (yeast gene YHR053C): 1.3
- The level of expressed mRNA in the presence of chemical substance/The level of expressed mRNA in the absence of chemical substance (yeast gene YHR055C): 1.6
- The level of expressed mRNA in the presence of chemical substance/The level of expressed mRNA in the absence of chemical substance (yeast gene YIR002C): 2.2
- The level of expressed mRNA in the presence of chemical substance/The level of expressed mRNA in the absence of chemical substance (yeast gene YIR038C): 2.5
- The level of expressed mRNA in the presence of chemical substance/The level of expressed mRNA in the absence of chemical substance (yeast gene YJL101C): 1.0
- The level of expressed mRNA in the presence of chemical substance/The level of expressed mRNA in the absence of chemical substance (yeast gene YJR104C): 1.4
- The level of expressed mRNA in the presence of chemical substance/The level of expressed mRNA in the absence of chemical substance (yeast gene YKL026C): 1.8
- The level of expressed mRNA in the presence of chemical substance/The level of expressed mRNA in the absence of chemical substance (yeast gene YKL064W): 1.5
- The level of expressed mRNA in the presence of chemical substance/The level of expressed mRNA in the absence of chemical substance (yeast gene YKR066C): 0.9
- The level of expressed mRNA in the presence of chemical substance/The level of expressed mRNA in the absence of chemical substance (yeast gene YKR105C): 1.2
- The level of expressed mRNA in the presence of chemical substance/The level of expressed mRNA in the absence of chemical substance (yeast gene YKR106W): 1.6
- The level of expressed mRNA in the presence of chemical substance/The level of expressed mRNA in the absence of chemical substance (yeast gene YLL028W): 1.7
- The level of expressed mRNA in the presence of chemical substance/The level of expressed mRNA in the absence of chemical substance (yeast gene YLL057C): 1.0
- The level of expressed mRNA in the presence of chemical substance/The level of expressed mRNA in the absence of chemical substance (yeast gene YLL060C): 1.4
- The level of expressed mRNA in the presence of chemical substance/The level of expressed mRNA in the absence of chemical substance (yeast gene YLR043C): 1.4
- The level of expressed mRNA in the presence of chemical substance/The level of expressed mRNA in the absence of chemical substance (yeast gene YLR046C): 3.8
- The level of expressed mRNA in the presence of chemical substance/The level of expressed mRNA in the absence of chemical substance (yeast gene YML028W): 1.2
- The level of expressed mRNA in the presence of chemical substance/The level of expressed mRNA in the absence of chemical substance (yeast gene YML116W): 0.9
- The level of expressed mRNA in the presence of chemical substance/The level of expressed mRNA in the absence of chemical substance (yeast gene YMR015C): 1.3
- The level of expressed mRNA in the presence of chemical substance/The level of expressed mRNA in the absence of chemical substance (yeast gene YMR038C): 1.0
- The level of expressed mRNA in the presence of chemical substance/The level of expressed mRNA in the absence of chemical substance (yeast gene YNL239W): 1.8
- The level of expressed mRNA in the presence of chemical substance/The level of expressed mRNA in the absence of chemical substance (yeast gene YNL241C): 0.9
- The level of expressed mRNA in the presence of chemical substance/The level of expressed mRNA in the absence of chemical substance (yeast gene YNL259C): 3.9
- The level of expressed mRNA in the presence of chemical substance/The level of expressed mRNA in the absence of chemical substance (yeast gene YOL158C): 2.0
- The level of expressed mRNA in the presence of chemical substance/The level of expressed mRNA in the absence of chemical substance (yeast gene YOR031W): 0.9
- The level of expressed mRNA in the presence of chemical substance/The level of expressed mRNA in the absence of chemical substance (yeast gene YOR153W): 7.4
- The level of expressed mRNA in the presence of chemical substance/The level of expressed mRNA in the absence of chemical substance (yeast gene YOR247W): 0.2
- The level of expressed mRNA in the presence of chemical substance/The level of expressed mRNA in the absence of chemical substance (yeast gene YOR251C): 0.9
- The level of expressed mRNA in the presence of chemical substance/The level of expressed mRNA in the absence of chemical substance (yeast gene YOR273C): 0.4
- The level of expressed mRNA in the presence of chemical substance/The level of expressed mRNA in the absence of chemical substance (yeast gene YPL163C): 0.6
- The level of expressed mRNA in the presence of chemical substance/The level of expressed mRNA in the absence of chemical substance (yeast gene YPR200C): 0.8
